Tests used:
pSMAD3 = test: pSMAD3/SMAD3 MSD assay in mouse liver tissue; format: in vivo; conditions: all doses (100, 300, 1000 mg/kg), 6 weeks
Description: The tissue source is BALBc.Mdr2-/−male mice that were 6 weeks old. The Mdr2(abcb4)−/− mouse model of sclerosing cholangitis has been previously described and is a model of spontaneously progressive hepatic fibrosis in mice with deletion of the biliary phospholipid flippase on fibrosis-susceptible background (Mdr2(abcb4)^−/−. BALB/c mouse). See N. Ikenaga, et al. (2015) Am J Pathol. 185 (2): 325-334, the entire contents of which are hereby incorporated by reference in their entirety.
(S)-4-((2-methoxyethyl)(4-(5,6,7,8-tetrahydro-1,8-naphthyridin-2-yl)butyl)amino)-2-(quinazolin-4-ylamino)butanoic acid (or PBS) was dosed once daily orally at 100 mg/kg, 300 mg/kg or 1000 mg/kg (see Table B-2) starting at 6 weeks after birth of the subject and continuing for 6 weeks. All animals were euthanized and necropsied at the end of week 12.
Mouse liver tissues were lysed with RIPA buffer with protease inhibitor cocktail. Total protein concentration was determined by Micro BCA kit. MSD GOLD™ 96 Sm Spot SA Plate was washed three times with 150 μL of PBST and 1 μg/mL of biotinylated anti-SMAD2/3 was added to the plate, 25 μL per well (60 Min incubation under agitation). The plate was washed as before and 12.5 μL of unknown samples plus 12.5 μL of PBST were added in duplicates. […] After wash, 150 μL of 1× read buffer was added and the plate was read using an MSD Sector Imager instrument.

[1] = Phase 2a INTEGRIS-PSC: plasma concentrations (total and unbound); format: in vivo, human; conditions: 40, 80, 160 mg once daily, 12 weeks
Description: The pharmacokinetic, pharmacodynamic, and pharmacogenomic assessments included the following: • a) PK: plasma samples for PK analysis (total and unbound(S)-4-((2-methoxyethyl)(4-(5,6,7,8-tetrahydro-1,8-naphthyridin-2-yl)butyl)amino)-2-(quinazolin-4-ylamino)butanoic acid concentrations) were obtained. • b) Biomarkers: plasma, serum (Parts 1, 2, and 3), and urine (Parts 1 and 2) samples were obtained. • c) Pharmacogenomics: a whole blood sample for deoxyribonucleic acid (DNA) isolation was collected before dosing on Day 1 from each subject in the study.
Blood samples for determination of plasma concentrations of (S)-4-((2-methoxyethyl)(4-(5,6,7,8-tetrahydro-1,8-naphthyridin-2-yl)butyl)amino)-2-(quinazolin-4-ylamino)butanoic acid are obtained before and at least 2 hours after administration of (S)-4-((2-methoxyethyl)(4-(5,6,7,8-tetrahydro-1,8-naphthyridin-2-yl)butyl)amino)-2-(quinazolin-4-ylamino)butanoic acid on Day 1, at Weeks 4 and 12(Parts 1, 2, and 3), Week 24 (Part 3 only), and at early termination (if possible, for any subject who prematurely discontinues from the study). The actual time dosing and the actual time of blood collection is recorded. […]

[2] = system: subjects with PSC and suspected liver fibrosis; test: Phase 2a INTEGRIS-PSC: gadoxetate contrast MRI of the liver; format: in vivo, human; conditions: for MRI relative enhancement (gadoxetate) / time to arrival to the common bile duct (gadoxetate): Example B-5
Experimental: Imaging of the whole liver was performed by MRI prior to Baseline and at Week 12 (Parts 1 and 2) and will be performed at Baseline, at Week 12, and at Week 24 (Part 3 only), and will be read centrally utilizing dynamic liver imaging in combination with the contrast agent Gadoxetate disodium and a 4-hour fast (no food or drink, except water). Any clinically significant incidental findings are evaluated as potential AEs.
Absolute and relative changes from Baseline in liver fibrosis biomarkers (including PRO-C3 and ELF) and in ALP are presented in numerical and graphical forms by treatment and dose utilizing data from the timepoints specified in the Schedule of Events. Changes from Baseline to Week 12(Parts 1 and 2) and Week 24 (Part 3) in magnetic resonance (MR)-based liver imaging are also evaluated, as well as changes in PROs.

[3] = all doses, Week 12, MRI sub-study, Example B-4

COCCN(CCCCc1ccc2c(n1)NCCC2)CC[C@H](Nc1ncnc2ccccc12)C(=O)O [Bexotegrast, (S)-4-((2-methoxyethyl)(4-(5,6,7,8-tetrahydro-1,8-naphthyridin-2-yl)butyl)amino)-2-(quinazolin-4-ylamino)butanoic acid]
pSMAD3 levels in liver (pSMAD3): decreased
total and unbound plasma concentrations vs dose [1]: increased with dose
MRI relative enhancement (gadoxetate) ([2]; 320 mg, Week 12, MRI sub-study): increased relative enhancement
time to arrival to the common bile duct (gadoxetate) ([2]; 320 mg, Week 12, MRI sub-study): decreased time to arrival
MRI imaging: hepatocyte function and bile flow relative to placebo ([2]; 320 mg, Week 12, Example B-4): evidence of improved hepatocyte function and bile flow
MRI relative enhancement (gadoxetate) ([2]; 320 mg, Week 24, MRI sub-study): further increase in relative enhancement
time to arrival to the common bile duct (gadoxetate) ([2]; 320 mg, Week 24, MRI sub-study): faster time to arrival
change in Gadoxetate time of arrival in bile duct ([2]; all doses compared to placebo, Week 12, Example B-3): shorter
MRI relative enhancement in whole liver (gadoxetate) ([2]; all doses, Baseline to Week 12, compared to a reduction in placebo, Example B-3): improvement in relative enhancement
Gadoxetate relative enhancement (RE) compared to the placebo [2, 3]: increase
Gadoxetate time of arrival to the common bile duct compared to the placebo [2, 3]: reduced

Reference: patent US20250120975A1, “INTEGRIN INHIBITORS FOR TREATMENT OF PRIMARY SCLEROSING CHOLANGITIS” (Pliant Therapeutics, Inc., priority 2023, published 2025)
